Reference: US20100015126A1, “Methods of Binding of Cross-Beta Structures By Chaperones” (priority 2006, published 2010)

How the values were obtained:
[1] = test system: human monocyte-derived dendritic cells; test: FACS: binding of misfolded proteins and BiP to human monocyte-derived dendritic cells; type: cell-based
Text: In vitro generation of peripheral blood human monocyte-derived dendritic cells, and analyses for binding of misfolded proteins and BiP
Human DCs are generated from non-proliferating precursors selected from peripheral blood mononuclear cells (PBMCs), essentially by published methods (Sallustro and Lanzavecchia [1994], J. Exp. Med. 179 1109-1118). Relative abundant presence of CD1a, CD32, CD36, CD40, CD54, CD86, HLA-DR and CD206 and relative low content of CD14 positive, CD16 positive, CD64 positive, CD80 positive, CD83 positive and CD163 positive cells serve as a quality measure for the immature DCs. After obtaining the immature DCs upon stimulation with GM-CSF and IL-4, direct binding of misfolded proteins and BiP to the DCs is assessed by incubating 200.000 cells (2*10^6 cells/ml) for 30 minutes at 4° C. under metabolic arrested state, with 1) PBS, 2) 58 μg/ml BiP (830 nM), 4) 250 μg/ml BSA-AGE (3.6 μM), 5) BSA-AGE+BiP, 6) 250 μg/ml oxLDL, 7) oxLDL+BiP, 8) mixture of BiP-binding peptides 6BB8-11, 13 (see Table 5), 125 μg/ml+BiP, and 8) 62.5 μg/ml Aβ16-22, 62.5 μg/ml Aβ25-35+BiP. After the incubation and careful washing of the cells, binding of BiP, BSA-AGE and oxLDL is assessed with FACS, using primary antibodies monoclonal anti-FLAG antibody, monoclonal anti-glycated human fibronectin antibody 4B5 and rabbit serum with anti-human apoliprotein B-100 antibody (Dade Behring, Newark, Del., USA), and the appropriate FITC- or PE-labeled secondary antibody. Mean fluorescence intensity (MFI) ratio's are determined by measuring background fluorescence.

HUVECs = test: Adhesion of HUVECs to immobilized misfolded proteins under influence of BiP (LDH read-out); type: cell-based, human; conditions: for Number of adhered HUVECs after preincubation of coated protein with BiP: BiP approximately 200 μg/ml
Method: HUVECs are primary endothelial cells (ECs), isolated from umbilical cords using 0.1% collagenase (Sigma, C0130, 100 mg, dissolved in 100 ml M199 medium supplemented with 10% FCS (Gibco 10106-169) and Penicillin-Streptomycin (P/S, Gibco, 15140-122)), according to widespread used standard procedures known to a person skilled in the art. HUVECs have the typical features of ECs, e.g. cobblestone morphology and von Willebrand factor storage in Weibel-Palade bodies. HUVECs can regularly be cultured up to passage 5; beyond passage 5 HUVECs loose typical EC markers. The isolation is described here in brief. The umbilical cord is washed for less than 3 minutes in ethanol and subsequently with PBS. The vein is connected to canules and flushed with 10 ml PBS, followed by loading with the 0.1% collagenase solution. After a 15 minute-incubation at 37° C., the detached endothelial cell suspension is recovered by flushing the vein with 10 ml medium which is subsequently added to the collagenase solution. The EC suspension is centrifuged for 5 minutes at room temperature, at low g-force. Supernatant is discarded and the cell pellet is resuspended in 5 ml ‘rich medium’ (EGM-2; Endothelial basal medium (EBM-2, Cambrex, CC-3156) and Singlequots containing supplements for endothelial cells (Cambrex, CC-4176)). Cells (passage 0, P0) are seeded in a culture flask coated with 0.5% gelatin (Sigma, G1393). To facilitate the adhesion of the endothelial cells, human fibronectin is added to the cell culture at a final concentration of 2 μg/ml. EC's are cultured at 37° C., at 5% CO2. The cell culture medium is refreshed every 2-3 days up to when the cells grow to confluency. Then, with the addition of trypsin-EDTA, the cells are detached from the flask, centrifuged at low g-force, resuspended in rich medium and seeded in larger 0.5% gelatin-precoated cell culture flasks.
In 96-wells plates (Immulon high-binding plates, Thermo Labsystems 3355) proteins, i.e. BSA-AGE, control BSA, IgIV Gammagard, crossbeta dIgIV-86 at 5 μg/ml, 10 μg/ml misfolded oxLDL, or gelatin (Sigma G1393, 2% solution in H2O or PBS, positive control for adhesion to ECs) were coated using 100 μl solutions, in six wells for each condition. Following incubation for 2 hours at 37° C. the solutions were discarded and the wells blocked for 1 hour at 37° C. with 100 μl/well of 1% polyvinyl-pyrrolidone (PVP, Sigma P5288) in PBS, filter (0.22 μm) sterilized. […] Subsequently, the block solution was discarded. Next, the plates were incubated with 40 μl RPMI 1640 medium (Gibco, 52400) and 10 μl of the potential inhibitor, i.e. recombinant human BiP at approximately 200 μg/ml final concentration. HUVECs were obtained by trypsinization. […] The absorbance at 490 nm was measured on a Versamax microplate reader at various time points.

immobilized BiP = target: T1, immobilized BiP (Homo sapiens, UniProt P11021); test: Depletion of solutions from misfolded proteins using immobilized BiP (ELISA); type: binding; conditions: BiP coated at 5 μg/ml
T1 construct: The human BiP gene except the signal peptide encoding region was obtained from Geneart (Germany); linker […]; made in house; host or cells: HEK 293E cells, transient transfection, PABC674 vector; secreted into the medium
T1 sequence (P11021 19-654): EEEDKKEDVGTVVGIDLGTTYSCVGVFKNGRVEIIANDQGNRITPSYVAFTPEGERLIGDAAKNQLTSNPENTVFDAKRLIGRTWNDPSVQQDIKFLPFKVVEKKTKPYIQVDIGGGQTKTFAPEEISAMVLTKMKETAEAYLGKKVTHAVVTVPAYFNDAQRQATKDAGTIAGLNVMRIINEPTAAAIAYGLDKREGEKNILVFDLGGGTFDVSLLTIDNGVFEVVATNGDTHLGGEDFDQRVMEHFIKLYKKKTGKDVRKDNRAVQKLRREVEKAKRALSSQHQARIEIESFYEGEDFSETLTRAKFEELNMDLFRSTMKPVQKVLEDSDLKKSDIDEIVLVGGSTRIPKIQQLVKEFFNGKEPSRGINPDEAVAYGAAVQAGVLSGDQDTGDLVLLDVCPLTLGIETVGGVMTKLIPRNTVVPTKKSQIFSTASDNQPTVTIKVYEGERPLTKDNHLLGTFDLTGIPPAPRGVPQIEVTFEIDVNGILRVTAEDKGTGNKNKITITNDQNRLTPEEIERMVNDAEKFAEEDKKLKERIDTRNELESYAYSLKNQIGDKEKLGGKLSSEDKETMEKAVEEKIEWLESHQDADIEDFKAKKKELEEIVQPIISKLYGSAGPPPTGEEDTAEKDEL
Method: We analysed whether recombinant human BiP with a C-terminal FLAG-tag and His-tag can be applied for depleting solutions from misfolded proteins comprising crossbeta structure.
BiP was coated at a concentration of 5 μg/ml at Greiner Microlon high-binding plates, for 1 h at room temperature with motion. As a negative control buffer was coated. ELISAs were performed essentially as described before. […] All binding buffers were PBS/0.1% (v/v) Tween20. Binding of dOVA was assayed using monoclonal anti-chicken egg albumin antibody (Sigma, A6075, 1:10.000 dilution) and RAMPO (Dako Cytomation, P0260, 1:3.000). […] Background signals obtained with buffer coated wells that were subsequently overlayed with protein solutions (see below), were subtracted from signals obtained with wells with coated BiP.

BSA-AGE
Binding to DCs (MFI ratio), Misfolded protein ([1]; FACS, human dendritic cells, detection of the misfolded protein, signal divided by background signal): 4.0
Binding of misfolded protein to DCs ([1]; absence of BiP, 250 μg/ml): bind
Amount of BiP bound to DCs when added together with misfolded protein ([1]; compared to BiP added to DCs alone): about doubled
Amount of misfolded protein bound to DCs when added together with BiP ([1]; compared to misfolded protein without BiP): only slightly increased
Number of adhered HUVECs after preincubation of coated protein with BiP (HUVECs): hardly increase
Adhesion of HUVECs to coated protein (HUVECs; without BiP, LDH activity after lysis): to a similar extent as to gelatin

HbAGE: human haemoglobin glycated with glucose-6-phosphate for 75 weeks
Concentration at which binding to immobilized BiP is already maximum (immobilized BiP): 1 µg/mL
Extraction from solution by immobilized BiP (immobilized BiP; 1, 10, 100 μg/ml misfolded protein): extracted specifically by BiP to an even higher extent

native BSA: non-modified bovine serum albumin control
Number of adhered HUVECs after preincubation of coated protein with BiP (HUVECs): hardly increase
